Like-named read-outs stand apart in the source and are kept apart here.

One assay addresses T1, human FXa (Homo sapiens, UniProt P00742).
T1 construct: purchased Anaspec, Fremont, CA, USA
Briefly: Inhibition of FXa in vitro (SensoLyte Rh110 Factor Xa Assay Kit, fluorometric). The class given is biochemical. The settings on record: for Emax at 0.01 µM: at 10 nM, read-out: maximal effect of FXa inhibition. The protocol:
The selected compounds were measured in vitro for their factor Xa inhibition using chromogenic substrates. In a first trial the 30 compounds obtained from the developmental therapeutic program at NCI were dissolved in dimethyl sulfoxide (DMSO) at a concentration of 100 mM and then diluted in DMSO to 100 μM. The enzymatic assay was prepared according to manufacturer’s instructions (SensoLyte® Rh110 Factor Xa Assay Kit *Fluorometric*, Anaspec, Fremont, CA, USA). Inhibition control 1 mM was diluted 1:10 with the prepared buffer 1X obtaining the 0.1 mM inhibition control. The reagents containing compound dilutions, buffer and enzyme were mixed, centrifuged, and incubated for 30 min at 37 °C in 96-well microtiter plates. The enzyme reaction was initiated by adding appropriate substrate (FXa, S-2222). The 96-well plate for fluorescence was prepared with 40 μL of enzyme and 1 μL of each compound. To initiate the enzymatic reaction 50 μL of the factor Xa substrate was added to each well and the plate was read with a fluorescence microplate reader FLx800 (Biotek Inc., Winooski, VT, USA) programmed to read continuously for 30 min at 37 °C, at a wavelength of Ex/Em 490 nm/520 nm. […] The data obtained was analyzed with Prism v.7 (GraphPad Inc., La Jolla, CA, USA). In the second trial, the ten filtered and selected compounds) were prepared to span four different concentrations: 0.1–10 nM. The IC50 was calculated from the mean of triplicates from a dilution series of the compound with Prism v.7 (GraphPad Inc., La Jolla, CA, USA).

In assay [1] the test system is human plasma. Briefly: In vitro coagulation assay, activated partial thromboplastin time (aPTT). Particulars: 0.1 to 10 nM. As to the method:
(§1) PT and aPTT assays were performed on an ACLTop (Instrumentation Laboratory) coagulation instrument. Recombiplastin 2G and aPTT-SP liquid were used according to standard procedures. Increasing concentrations of inhibitor ranging from 0.1 to 10 nM or solvent were added to human plasma and incubated for 10 min at 37 °C. Clotting times were measured and compared with those from the appropriate control plasma.

Assay [2] deals with human plasma. Briefly: In vitro coagulation assay, prothrombin time (PT). Particulars: up to 10 nM. As to the method: as §1
Another assay relates to tumor cell line. Particulars: assayed 53 times, ChEMBL database ref 46, 47; cited from earlier work.
The mark [3] stands for this setting: read-out: FXa Activity Inhibition >50% at 1 μM.
Where [4] appears, read: read-out: FXa Activity Inhibition >50% at 10 μM.

T1 sequence (P00742 235-488 limits assumed): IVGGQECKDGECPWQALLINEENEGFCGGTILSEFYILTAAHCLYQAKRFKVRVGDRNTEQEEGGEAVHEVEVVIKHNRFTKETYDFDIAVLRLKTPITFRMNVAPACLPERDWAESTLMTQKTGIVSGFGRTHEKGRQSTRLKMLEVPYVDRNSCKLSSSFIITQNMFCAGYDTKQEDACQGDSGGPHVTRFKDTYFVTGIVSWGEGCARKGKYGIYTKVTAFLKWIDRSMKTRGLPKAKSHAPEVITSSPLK
T1 sequence (P00742 41-179 partner limits assumed): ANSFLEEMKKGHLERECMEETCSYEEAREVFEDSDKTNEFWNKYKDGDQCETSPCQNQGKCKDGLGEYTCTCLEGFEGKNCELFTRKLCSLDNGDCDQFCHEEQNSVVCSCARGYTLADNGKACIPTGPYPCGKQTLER

Take `O=C(NCc1ccc2ccc3cccnc3c2n1)c1ccc[n+](Cc2ccccc2)c1` [Compound 2]: on human FXa, the “FXa Activity Inhibition >50% at 1 μM” value was “(−) (FXa Activity Inhibition >50% at 1 μM)” and the “FXa Activity Inhibition >50% at 10 μM” value is “(+) (FXa Activity Inhibition >50% at 10 μM)”.
For `Cc1ccc(NC(=O)CCc2nnc3s/c(=C\c4cccc([N+](=O)[O-])c4)c(=O)n23)cc1` [Compound 3], on human FXa, the “FXa Activity Inhibition >50% at 1 μM” value is recorded as “(−) (FXa Activity Inhibition >50% at 1 μM)” and the “FXa Activity Inhibition >50% at 10 μM” value is “(+) (FXa Activity Inhibition >50% at 10 μM)”.
In general, inhibition refers to the relative decrease from the control value, in per cent. By IC50 is commonly meant the concentration that gives 50% inhibition. Low values mean inhibition by little substance, high ones a need for much substance. As to `CC1=C(C(=O)CC(=O)C(=O)Nc2ccccc2)Sc2ccccc2N1` [Compound 5, 4-(3-methyl-4H-1,4-benzothiazin-2-yl)-2,4-dioxo-N-phenylbutanamide], in the assay on human plasma [1], the aPTT result is reported as “prolonged only aPTT”. Moreover, the Emax at 0.01 µM at human FXa is 58%. Further, the inhibition at 1 µM was over 50% at human FXa (at 1 μM, read-out: FXa inhibition) and over 50% at human FXa (setting [3]). At human FXa (dose response curves, human FXa), this compound had an IC50 of 2.02 nM. Further, the inhibition at 10 µM at human FXa (setting [4]) was over 50%. The PT result in the assay on human plasma [2] is “without effect on PT”. Moreover, the “tumor cell line growth inhibition” value in the assay with tumor cell line was “inactive in all of them”.
`CS(=O)(=O)N1C[C@H](C(=O)Nc2ccc(Cl)cc2)[C@@H](C(=O)Nc2ccc(-n3ccccc3=O)cc2F)C1` [Compound 8]: the inhibition at 1 µM on human FXa (1 µM, Table S1, read-out: FXa Activity Inhibition >50% at 1µM) is under 50%. In addition, on human FXa (10 µM, Table S1, read-out: FXa Activity Inhibition >50% at 10µM), the inhibition at 10 µM was under 50%.
As for `CCOc1ccc(NC(=O)CC2SC(=Nc3ccc(C)cc3)NC2=O)cc1` (stereo not shown) [Compound 9], at human FXa, the “FXa Activity Inhibition >50% at 1 μM” value was “(−) (FXa Activity Inhibition >50% at 1 μM)” and the “FXa Activity Inhibition >50% at 10 μM” value is on record as “(+) (FXa Activity Inhibition >50% at 10 μM)”.
For `O=C(C[n+]1ccn(CC(OCc2ccc(Cl)cc2Cl)c2ccc(Cl)cc2Cl)c1)c1ccc(F)cc1.[Cl-]` (stereo not shown) [Compound 10], in that order: “(−) (FXa Activity Inhibition >50% at 1 μM)” and “(+) (FXa Activity Inhibition >50% at 10 μM)”.
Taken in the same sequence, the figures for `c1ccc(Cc2[nH]nc(-c3n[nH]c(Cc4ccccc4)c3-c3ccccc3)c2-c2ccccc2)cc1` [Compound 12] were “(−) (FXa Activity Inhibition >50% at 1 μM)” and “(+) (FXa Activity Inhibition >50% at 10 μM)”.
Taken in the same sequence, the figures for `Cc1cc(Cl)ccc1NC(=O)CC1SC(=NC(=O)c2ccccc2Cl)NC1=O` (stereo not shown) [Compound 22] were “(−) (FXa Activity Inhibition >50% at 1 μM)” and “(+) (FXa Activity Inhibition >50% at 10 μM)”.
Turning to `O=C(CC(=O)C1=CNc2ccccc2S1)C(=O)Nc1ccc(Cl)cc1` [Compound 23], on human FXa, the “FXa Activity Inhibition >50% at 1 μM” value is recorded as “(−) (FXa Activity Inhibition >50% at 1 μM)” and the “FXa Activity Inhibition >50% at 10 μM” value was “(+) (FXa Activity Inhibition >50% at 10 μM)”.
Turning to `NC(=O)N/N=C(/Cc1nc2ccc(C(=O)c3ccccc3)cc2[nH]c1=O)C(=O)Nc1ccc(Br)cc1` [Compound 24], at human FXa, the “FXa Activity Inhibition >50% at 1 μM” value is recorded as “(−) (FXa Activity Inhibition >50% at 1 μM)” and the “FXa Activity Inhibition >50% at 10 μM” value was “(+) (FXa Activity Inhibition >50% at 10 μM)”.
For `O=C(NC[C@H]1CN(c2ccc(N3CCOCC3=O)cc2)C(=O)O1)c1ccc(Cl)s1` [Rivaroxaban, reference compound], in the assay on human plasma [1], the aPTT entry is “simultaneously prolonged aPTT and PT in a dose-dependent manner”. Moreover, at human FXa, the Emax at 0.01 µM turned out to be 81%. Further, on human FXa (setting [3]), the inhibition at 1 µM is over 50%. At human FXa (setting [4]), the inhibition at 10 µM is over 50%. The PT entry in the assay on human plasma [2] was “simultaneously prolonged aPTT and PT in a dose-dependent manner”.

The record behind these values is PMC6151700, “Novel FXa Inhibitor Identification through Integration of Ligand- and Structure-Based Approaches” (Molecules : A Journal of Synthetic Chemistry and Natural …, 2017).
